Assays:
Bacillus subtilis [1] = test: Tested for antibacterial effect against Bacillus subtilis-8 at dose 12.5 ug/mL; format: functional
Bacillus subtilis [2] = test: Tested for antibacterial effect against Bacillus subtilis-8 at dose 25 ug/mL; format: functional
Bacillus subtilis [3] = test: Tested for antibacterial effect against Bacillus subtilis-8 at dose 50 ug/mL; format: functional
Bacillus subtilis [4] = test: Tested for antibacterial effect against Bacillus subtilis-8 at dose 6.25 ug/mL; format: functional
L1210 [5] = test: Median survival time of treated to that of control after administration at 0.4 mg/kg intraperitoneally in BDF1 mice on day 1; format: functional, Mus musculus; details: route intraperitoneal
L1210 [6] = test: Median survival time of treated to that of control after administration at 0.8 mg/kg intraperitoneally in BDF1 mice on day 1; format: functional, Mus musculus; details: route intraperitoneal
L1210 [7] = test: Median survival time of treated to that of control after administration at 1.6 mg/kg intraperitoneally in BDF1 mice on day 1; format: functional, Mus musculus; details: route intraperitoneal
L1210 [8] = test: Tested for survivors on day 5 after administration at 6.4 mg/kg intraperitoneally in mice on day 1; format: functional, Mus musculus; details: route intraperitoneal
L1210 [9] = test: Median survival time of treated to that of control after administration at 12.8 mg/kg intraperitoneally in BDF1 mice on day 1; format: functional, Mus musculus; details: route intraperitoneal
L1210 [10] = test: Median survival time of treated to that of control after administration at 3.2 mg/kg intraperitoneally in BDF1 mice on day 1; format: functional, Mus musculus; details: route intraperitoneal
L1210 [11] = test: Average weight change after administration at 0.4 mg/kg intraperitoneally in mice on day 1; format: functional, Mus musculus; details: route intraperitoneal
L1210 [12] = test: Average weight change after administration at 0.8 mg/kg intraperitoneally in mice on day 1; format: functional, Mus musculus; details: route intraperitoneal
L1210 [13] = test: Average weight change after administration at 1.6 mg/kg intraperitoneally in mice on day 1; format: functional, Mus musculus; details: route intraperitoneal
L1210 [14] = test: Average weight change after administration at 12.8 mg/kg intraperitoneally in mice on day 1; format: functional, Mus musculus; details: route intraperitoneal
L1210 [15] = test: Average weight change after administration at 3.2 mg/kg intraperitoneally in mice on day 1; format: functional, Mus musculus; details: route intraperitoneal
L1210 [16] = test: Tested for survivors on day 5 after administration at 3.2 mg/kg intraperitoneally in mice on day 1; format: functional, Mus musculus; details: route intraperitoneal
L1210 [17] = test: Tested for survivors on day 5 after administration at 0.4 mg/kg intraperitoneally in mice on day 1; format: functional, Mus musculus; details: route intraperitoneal
L1210 [18] = test: Tested for survivors on day 5 after administration at 0.8 mg/kg intraperitoneally in mice on day 1; format: functional, Mus musculus; details: route intraperitoneal
L1210 [19] = test: Tested for survivors on day 5 after administration at 1.6 mg/kg intraperitoneally in mice on day 1; format: functional, Mus musculus; details: route intraperitoneal
L1210 [20] = test: Tested for survivors on day 5 after administration at 12.8 mg/kg intraperitoneally in mice on day 1; format: functional, Mus musculus; details: route intraperitoneal
L1210 [21] = test: Median survival time of treated to that of control after administration at 6.4 mg/kg intraperitoneally in BDF1 mice on day 1; format: functional, Mus musculus; details: route intraperitoneal
Bacillus subtilis [22] = test: Tested for antibiotic activity against Bacillus subtilis-ATTCC 6633 at dose 12.5 ug/mL via plate assay; format: functional

SMILES: C/C(=N\NC(=O)c1ccccc1)[C@]1(O)Cc2c(O)c3c(c(O)c2[C@@H](O[C@H]2C[C@H](O)[C@H](O)[C@H](C)O2)C1)C(=O)c1c(O)cccc1C3=O
- Inhibition zone (Bacillus subtilis [1]): 12.8 mm
- Inhibition zone (Bacillus subtilis [2]): 13.8 mm
- Inhibition zone (Bacillus subtilis [3]): 15 mm
- Inhibition zone (Bacillus subtilis [4]): 10.3 mm
- T/C (L1210 [5]): 100%
- T/C (L1210 [6]): 93%
- T/C (L1210 [7]): 100%
- Survivors (L1210 [8]): 6
- T/C (L1210 [9]): 114%
- T/C (L1210 [10]): 93%
- Average weight change (L1210 [11]): 2.3
- Average weight change (L1210 [12]): 1.5
- Average weight change (L1210 [13]): 2
- Average weight change (L1210 [14]): -0.3
- Average weight change (L1210 [15]): 1.9
- Survivors (L1210 [16]): 6
- Survivors (L1210 [17]): 6
- Survivors (L1210 [18]): 6
- Survivors (L1210 [19]): 6
- Survivors (L1210 [20]): 6
- T/C (L1210 [21]): 107%

SMILES: CC(=O)[C@]1(O)Cc2c(O)c3c(c(O)c2C(O)C1)C(=O)c1c(O)cccc1C3=O (some centres not stated) [CARMINOMYCINONE]
- Inhibition zone (Bacillus subtilis [22]): 20.2 mm

— ChEMBL document CHEMBL1121707, “Synthesis of 2'-deoxy-L-fucopyranosylcarminomycinone and -epsilon-pyrromycinone as well as 2'-deoxy-D-erythro-pentopyranosyldaunomycinone, -carminomycinone, and -epsilon-pyrromycinone” (1981)
